Measured values from patent US20120309734A1, “COMBRETASTATIN DERIVATIVES AND USES THEREFOR” (priority 2009, published 2012).
Read-outs that look alike come from different tables or passages of the source.

Experiments:
[1] = test system: human chronic myeloid leukaemia K562 cells; experiment: MTT cell viability assay; format: cell-based; details: read-out: Inhibition of cell viability (IC50 value, nM) K562
HL-60-BCRP = experiment: Alamar Blue cell viability assay
Experimental: (§1) Three drug resistant cell lines and respective parental cell lines were assessed. […] Western blot analysis confirmed the overexpression of p-glycoprotein and BCRP in respective cell lines.
(§2) Cells were exposed to multiple concentrations of the indicated compound for 72 h. Cell viability was assessed using the Alamar blue assay and respective IC50 values were calculated. The resistance factor (RF) was calculated by dividing the IC50 of the resistant cell line/IC50 of the parental cell line.
(§3) All cells were cultured in RPMI-1640 Glutamax medium supplemented with 10% FCS media, 100 units/ml penicillin and 100 μg/mIstreptomycin. Cells were maintained at 37° C. in 5% CO2 in a humidified incubator.
(§4) The reduction of Alamar Blue is proportional to the number of viable cells. Cells (200 μl) were plated in triplicate in a 96-well plates (K562, 100,000/ml; HL-60, 300,000/ml; A-2780 50,000/ml). A-2780 cells were plated 24 h prior to treatment. Suspension cells were plated in the log phase of growth and treated immediately. The cells were then treated with either medium alone, vehicle (1% ethanol v/v or 0.1% DMSO v/v) or with a range of concentrations of drug [0.001-10 μM]. After 72 h, Alamar Blue was added to each well (10% of final volume) and fluorescence was read using a 96-well fluorometer with excitation at 530 nm and emission of 590 nm. The blank solution consisted of medium and Alamar Blue and the blank solution was used to calibrate the spectrophotometer to zero absorbance. The relative cell viability (%) related to control wells and was calculated by [A]test/[A]control×100 where [A]test is the absorbance of the drug treated cells and [A]control the absorbance of the vehicle control treated cells. Dose response curves were plotted and IC50 values (concentration of drug resulting in 50% reduction in cell survival) were obtained using the commercial software package Prism (GraphPad Software, Inc., La Jolla, USA). Experiments were performed in triplicate on at least three separate occasions.

[2] = test system: primary CML cells (BCR-ABL-positive); experiment: Apoptosis in ex vivo CML cells, annexin V staining; format: cell-based, human; details: 72 h
Description: This study is the first pre-clinical evaluation of combretastatins in the treatment of chemotherapy naive and patients with acquired imatinib mesylate resistance (refractory or relapsed disease despite adequate dose and duration). Imatinib mesylate is the first line treatment in BCR-ABL-positive CML chemotherapy. BCR-ABL, a constitutively active protein tyrosine kinase is a product of the Philadelphia chromosome (Ph) translocation t(9;22) and plays a central role in the pathogenesis of CML. […] All cells were treated with a clinically achievable concentration of imatinib mesylate (indicated as STI in FIG. 3) [250 nM]. […] The percentage apoptosis was determined by flow cytometric analysis of annexin-V stained cells.
The percentage of apoptosis in ex-vivo CML cells was determined by annexin V staining. […] Cells were collected by centrifugation at 400×g for 5 min and resuspended in anti-CD-45 diluted 1:50 in RPMI medium. Following a 10 min incubation in the dark at room temperature, cells were centrifuged and washed in Annexin binding buffer (Biosource, Nivelles, Belgium). Cells were again centrifuged and resuspended in Annexin-V-FITC (IQ products, Netherlands) diluted in Annexin binding buffer (1:50). Samples were next incubated in the dark on ice for 15 min. Annexin binding buffer (1 ml) was added to each sample. Samples were collected by centrifugation and resuspended in 0.5 ml of Annexin binding buffer. Cells were read immediately by flow cytometry and analysed by Cellquest software. CML cells were selected and gated based on their low to medium side scatter and low CD45 expression.

A2780-ADR (PGP) = experiment: Alamar Blue cell viability assay
Experimental: as §1, §2, §3, §4

[3] = test system: normal mouse mammary epithelial cells; experiment: Viability of normal mammary epithelial cells; format: cell-based; details: 72 hr treatment
p-glycoprotein = target: T1, p-glycoprotein (Homo sapiens, UniProt P08183); experiment: Anti-proliferative effects in multi-drug resistant cells, conclusion on efflux; format: cell-based; details: concluded from resistance factors
T1 construct: HL-60-MDR (overexpress p-glycoprotein); endogenous in cells; host or cells: HL-60-MDR, A2780-ADR
Experimental: as §1, §2

[4] = test system: normal mouse mammary epithelial cells; experiment: Viability of normal mammary epithelial cells; format: cell-based; details: for Percent viability of normal mammary epithelial cells compared to control: 10 nM, 72 hr treatment; for effects on normal mammary epithelial cells: up to 10 μM
Experimental: The maximum toxicity elicited by these drugs on normal cells at a concentration of 10 nM was only 8% (see Table 4).

A2780-parental = experiment: Alamar Blue cell viability assay; format: cell-based; details: 72 h
Experimental: as §2
(§5) A2780-parental and A2780-ADR resistant cells were provided by the Beatson Institute of Cancer Research, Glasgow. […] All cells were cultured in RPMI-1640 Glutamax medium supplemented with 10% FCS media, 100 units/ml penicillin and 100 μg/mIstreptomycin. Cells were maintained at 37° C. in 5% CO2 in a humidified incubator.
as §4

HL-60 parental = experiment: Alamar Blue cell viability assay; format: cell-based; details: Homo sapiens, 72 h
Experimental: as §2, §5, §4

[5] = test system: human promyelocytic leukaemia HL-60 cells; experiment: MTT cell viability assay; format: cell-based; details: read-out: Inhibition of cell viability (IC50 value, nM) HL-60
HL-60-MDR(PGP) = experiment: Alamar Blue cell viability assay; format: cell-based, human
Experimental: as §1, §2, §3, §4

[6] = test system: MCF-7 breast cancer cell line; experiment: Antiproliferation study, MTT cell viability assay; format: cell-based; details: Homo sapiens
Experimental: All assays were performed in triplicate for the determination of mean values reported. Compounds were assayed as the free bases isolated from reaction. The human breast tumour cell line MCF-7 was cultured in Eagles minimum essential medium in a […] atmosphere with 10% fetal bovine serum, 2 mM L-glutamine and 100 μg/mL penicillin/streptomycin. The medium was supplemented with 1% non-essential amino acids. MDA-MB-231 cells were maintained in Dulbecco's Modified Eagle's medium (DMEM), supplemented with 10% (v/v) Fetal bovine serum, 2 mM L-glutamine and 100 μg/mL penicillin/streptomycin (complete medium). Cells were trypsinised and seeded at a density of 2.5×10^4 cells/ml in a 96-well plate and incubated at 37° C., […] atmosphere for 24 h. […] Control wells contained the equivalent volume of the vehicle ethanol (1% v/v). The culture medium was then removed and the cells washed with 100 μL phosphate buffered saline (PBS) and 50 μL MTT added, to reach a final concentration of 1 mg/mL MTT added. Cells were incubated for 2 h in darkness at 37° C. At this point solubilization was begun through the addition of 200 μL DMSO and the cells maintained at room temperature in darkness for 20 min to ensure thorough colour diffusion before reading the absorbance. The absorbance value of control cells (no added compound) was set to 100% cell viability and from this graphs of absorbance versus cell density per well were prepared to assess cell viability and from these, graphs of percentage cell viability versus concentration of subject compound added were drawn.

[7] = In vitro stability in plasma; format: in vitro ADME; details: human plasma
[8] = MCF7, 72 h, antiproliferative activity, MTT, 72 h, read-out: IC50 (μM) MCF-7 cell line

T1 sequence (P08183 whole entry): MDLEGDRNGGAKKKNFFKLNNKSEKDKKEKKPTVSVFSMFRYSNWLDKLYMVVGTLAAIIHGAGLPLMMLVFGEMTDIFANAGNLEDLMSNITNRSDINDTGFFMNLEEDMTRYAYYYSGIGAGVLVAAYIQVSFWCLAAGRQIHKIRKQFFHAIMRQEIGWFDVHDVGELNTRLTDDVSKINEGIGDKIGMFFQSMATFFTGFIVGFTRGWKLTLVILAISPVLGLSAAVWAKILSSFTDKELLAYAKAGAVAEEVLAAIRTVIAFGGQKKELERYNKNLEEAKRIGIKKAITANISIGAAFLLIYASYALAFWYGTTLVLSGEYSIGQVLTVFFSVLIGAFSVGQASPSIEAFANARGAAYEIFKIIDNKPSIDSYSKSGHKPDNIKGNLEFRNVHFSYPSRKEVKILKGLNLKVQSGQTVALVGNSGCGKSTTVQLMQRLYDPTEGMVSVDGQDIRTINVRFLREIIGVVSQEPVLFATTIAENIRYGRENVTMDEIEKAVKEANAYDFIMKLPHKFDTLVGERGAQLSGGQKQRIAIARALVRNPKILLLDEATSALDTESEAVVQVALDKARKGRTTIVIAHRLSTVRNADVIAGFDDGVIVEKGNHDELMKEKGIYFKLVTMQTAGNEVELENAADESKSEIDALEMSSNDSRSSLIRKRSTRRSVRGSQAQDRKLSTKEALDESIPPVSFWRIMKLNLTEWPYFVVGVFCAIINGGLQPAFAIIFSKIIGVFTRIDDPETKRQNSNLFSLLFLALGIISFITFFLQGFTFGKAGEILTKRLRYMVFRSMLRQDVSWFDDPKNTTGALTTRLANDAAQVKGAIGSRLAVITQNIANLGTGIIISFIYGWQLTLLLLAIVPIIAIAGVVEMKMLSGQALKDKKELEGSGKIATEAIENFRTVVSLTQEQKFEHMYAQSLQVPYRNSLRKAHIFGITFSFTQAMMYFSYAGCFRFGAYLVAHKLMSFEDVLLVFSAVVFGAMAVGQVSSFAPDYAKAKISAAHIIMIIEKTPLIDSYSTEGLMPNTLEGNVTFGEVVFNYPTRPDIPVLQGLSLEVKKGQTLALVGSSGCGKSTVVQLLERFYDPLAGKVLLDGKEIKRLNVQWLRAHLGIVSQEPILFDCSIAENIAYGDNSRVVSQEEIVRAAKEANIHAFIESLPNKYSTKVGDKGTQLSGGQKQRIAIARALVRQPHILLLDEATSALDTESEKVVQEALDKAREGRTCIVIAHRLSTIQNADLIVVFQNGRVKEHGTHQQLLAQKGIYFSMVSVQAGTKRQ

Row | SMILES | IC50 [1] [nM] | Percent viability of normal mammary epithelial cells compared to control ([3]; 1 nM) [%] | Percent viability of normal mammary epithelial cells compared to control ([3]; 100 nM) [%] | Percent viability of normal mammary epithelial cells compared to control ([3]; 1 μM) [%] | Percent viability of normal mammary epithelial cells compared to control ([3]; 10 μM) [%] | Percent viability of normal mammary epithelial cells compared to control [4] [%] | effects on normal mammary epithelial cells [4] | IC50 [5] [nM] | IC50 [6, 8] [µM] | further results
1 | COc1ccc(/C=C\c2cc(OC)c(OC)c(OC)c2)cc1O [CA-4, combretastatin A-4, reference compound] | 3.8 | 98 | 74.8 | 74.7 | 75.0 | 92 | minimal effects | 4.1 | – | IC50 (HL-60-BCRP; Homo sapiens, 72 h): 3.5 nM; RF (HL-60-BCRP; IC50 HL-60-BCRP / IC50 HL-60 parental): 0.8; apoptosis induction compared with imatinib mesylate ([2]; 250 nM each, patient samples): more effective inducers of apoptosis than imatinib mesylate; apoptosis in primary CML cells ([2]; 250 nM, chemotherapy naïve (4 samples) and imatinib mesylate resistant (2 samples)): induced apoptosis; IC50 (A2780-ADR (PGP); A2780 ADR, 72 h): 6.8 nM; RF (A2780-ADR (PGP); IC50 A2780-ADR (PGP) / IC50 A2780-parental): 0.9; substrate for the p-glycoprotein (p-glycoprotein): poor substrates for the p-glycoprotein; IC50 (A2780-parental): 7.5 nM; IC50 (HL-60 parental): 4.5 nM; IC50 (HL-60-MDR(PGP); Homo sapiens, HL60/MDR, 72 h): 3.3 nM; RF (HL-60-MDR(PGP); IC50 HL-60-MDR(PGP) / IC50 HL-60 parental): 0.73
2 | COc1ccc(C2C(Oc3ccccc3)C(=O)N2c2cc(OC)c(OC)c(OC)c2)cc1O (stereo not shown) [Compound 1, 4-(3-Hydroxy-4-methoxy-phenyl)-3-phenoxy-1-(3,4,5-trimethoxy-phenyl)-azetidin-2-one] | – | – | – | – | – | – | – | – | 0.038 | half-life [7]: 35 h
3 | C=CC1C(=O)N(c2cc(OC)c(OC)c(OC)c2)C1c1ccc(OC)c(O)c1 (stereo not shown) [Compound 2, 4-(3-Hydroxy-4-methoxy-phenyl)-1-(3,4,5-trimethoxy-phenyl)-3-vinyl-azetidin-2-one] | 26.6 | 93.1 | 74.4 | 73.0 | 73.8 | 92.3 | minimal effects | 17.1 | 0.0014 | IC50 ([6]; MCF7, MTT cell viability assay, read-out: Inhibition of cell viability (IC50 value, nM) MCF-7): 0.0008 to 0.0031 µM
